# ChEMBL document CHEMBL1201862, “PubChem BioAssay data set” (2004)
#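 Five compound concentrations were applied to cells in 96-well plates for 48 hours; endpoints were derived by simple linear interpolation of the resulting dose-response curve. At the GI50, growth is halved.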 The source made the active and inactive calls. Cut-off read from the data, not from the text of the source: active = GI50 up to about 1.1 µM and inactive = higher.
# Experiments:
# Test in all cases: NCI anticancer screen, dose series, 48 h
# [1] = tested on: 786-0
# [2] = tested on: A498
# [3] = tested on: A549
# [4] = tested on: ACHN
# [5] = tested on: CAKI-1
# [6] = tested on: CCRF-CEM
# [7] = tested on: COLO 205
# [8] = tested on: DLD-1
# [9] = tested on: DMS-114
# [10] = tested on: DMS-273
# [11] = tested on: EKVX
# [12] = tested on: HCT-116
# [13] = tested on: HCT-15
# [14] = tested on: HL-60
# [15] = tested on: HOP-62
# [16] = tested on: HOP-92
# [17] = tested on: K562
# [18] = tested on: KM-20L2
# [19] = tested on: KM12
# [20] = tested on: LOX IMVI
# [21] = tested on: M14
# [22] = tested on: M19-MEL
# [23] = tested on: MOLT-4
# [24] = tested on: NCI-H23
# [25] = tested on: NCI-H460
# [26] = tested on: NCI-H522
# [27] = tested on: OVCAR-3
# [28] = tested on: OVCAR-4
# [29] = tested on: OVCAR-8
# [30] = tested on: RPMI-8226
# [31] = tested on: RXF 393
# [32] = tested on: SF-268
# [33] = tested on: SF-295
# [34] = tested on: SF-539
# [35] = tested on: SK-MEL-28
# [36] = tested on: SK-MEL-2
# [37] = tested on: SK-MEL-5
# [38] = tested on: SK-OV-3
# [39] = tested on: SN12C
# [40] = tested on: SNB-19
# [41] = tested on: SNB-75
# [42] = tested on: SNB-78
# [43] = tested on: SR
# [44] = tested on: SW-620
# [45] = tested on: TK-10
# [46] = tested on: U-251
# [47] = tested on: UACC-257
# [48] = tested on: UACC-62
# [49] = tested on: UO-31
# [50] = tested on: XF498
compound,measurement,setting,value
c1cnn(CN(Cn2cccn2)Cn2cccn2)c1,GI50,[1],> 100 µM (inactive)
same,GI50,[2],> 100 µM (inactive)
same,GI50,[3],> 100 µM (inactive)
same,GI50,[4],> 100 µM (inactive)
same,GI50,[5],> 100 µM (inactive)
same,GI50,[6],> 100 µM (inactive)
same,GI50,[7],> 100 µM (inactive)
same,GI50,[8],> 100 µM (inactive)
same,GI50,[9],> 100 µM (inactive)
same,GI50,[10],> 100 µM (inactive)
same,GI50,[11],> 100 µM (inactive)
same,GI50,[12],> 100 µM (inactive)
same,GI50,[13],> 100 µM
same,GI50,[14],> 100 µM (inactive)
same,GI50,[15],> 100 µM (inactive)
same,GI50,[16],> 100 µM (inactive)
same,GI50,[17],> 100 µM (inactive)
same,GI50,[18],> 100 µM (inactive)
same,GI50,[19],> 100 µM (inactive)
same,GI50,[20],> 100 µM (inactive)
same,GI50,[21],> 100 µM (inactive)
same,GI50,[22],> 100 µM (inactive)
same,GI50,[23],> 100 µM (inactive)
same,GI50,[24],> 100 µM (inactive)
same,GI50,[25],> 100 µM (inactive)
same,GI50,[26],> 100 µM (inactive)
same,GI50,[27],> 100 µM (inactive)
same,GI50,[28],> 100 µM (inactive)
same,GI50,[29],> 100 µM (inactive)
same,GI50,[30],35.5 µM (inactive)
same,GI50,[31],> 100 µM (inactive)
same,GI50,[32],> 100 µM (inactive)
same,GI50,[33],> 100 µM (inactive)
same,GI50,[34],> 100 µM (inactive)
same,GI50,[35],> 100 µM (inactive)
same,GI50,[36],> 100 µM (inactive)
same,GI50,[37],> 100 µM (inactive)
same,GI50,[38],> 100 µM (inactive)
same,GI50,[39],> 100 µM (inactive)
same,GI50,[40],> 100 µM (inactive)
same,GI50,[41],> 100 µM (inactive)
same,GI50,[42],> 100 µM (inactive)
same,GI50,[43],> 100 µM (inactive)
same,GI50,[44],> 100 µM (inactive)
same,GI50,[45],> 100 µM (inactive)
same,GI50,[46],> 100 µM (inactive)
same,GI50,[47],> 100 µM (inactive)
same,GI50,[48],35.9 µM (inactive)
same,GI50,[49],> 100 µM (inactive)
same,GI50,[50],> 100 µM (inactive)
